This is an account of results in PMC2364952, “The Anti-Inflammatory Activity of Boron Derivatives in Rodents” (Metal-Based Drugs, 1995).

Usually pIC50 stands for the negative decadic logarithm of the IC50, by convention in mol/L.

pIC50: −log10 of the molar value.

Test [1] has as its target prostaglandin cyclooxygenase. As to the kind of experiment: Prostaglandin cyclooxygenase activity, macrophages. Format: cell-based, mouse (J774 macrophages). The note with it: Table 7.
Test [2] concerns prostaglandin cyclooxygenase. Nature of the test: Prostaglandin cyclooxygenase activity, Be Sal cells. In kind it is cell-based, human (Be Sal osteofibrolytic cells). As to conditions: Table 7; read-out: IC50 Prostaglandin Cyclooxygenase, Be Sal Osteofibro.
A further test has as its target acid phosphatase. As to the kind of experiment: Acid phosphatase activity, mouse macrophages. Format: cell-based, mouse (J774 macrophages). As to conditions: Table 3; read-out: IC50 Acid Phosphatase, Mouse Macrophage.
The next test relates to cathepsin. As to the kind of experiment: Cathepsin activity, mouse macrophages. Format: cell-based, mouse (J774 macrophages). As to conditions: Table 3; read-out: IC50 Cathepsin, Mouse Macrophage.
The subject of test [3] is acetic acid induced stretch reflex. As to the kind of experiment: Local analgesic screen (acetic acid writhing). In kind it is in vivo, CF1 mice. As to conditions: for Mice Writhing Reflex: 8 mg/kg I.P., Table 2; for reduction of the reflex action: mice, acetic acid induced local pain, 8 mg/kg.
For a further test, the target named is aryl sulphatase. Nature of the test: Aryl sulfatase activity, mouse macrophages. Format: cell-based, mouse (J774 macrophages). As to conditions: Table 3; read-out: IC50 Aryl Sulfatase, Mouse Macrophage.
Test [4] addresses elastase. Nature of the test: Elastase activity, mouse macrophages. As to conditions: Table 5; read-out: IC50 Elastase, Mouse Macrophage. Format: cell-based, mouse (J774 macrophages).
Test [5] has as its target T1, prostaglandin cyclooxygenase (Bos taurus, UniProt O62664).
T1 construct: purified commercial prostaglandin synthetase from bovine seminal vesicles (Miles Research Products); purchased Miles Research Products; host or cells: bovine seminal vesicles (tissue preparation)
T1 sequence (O62664 25-600): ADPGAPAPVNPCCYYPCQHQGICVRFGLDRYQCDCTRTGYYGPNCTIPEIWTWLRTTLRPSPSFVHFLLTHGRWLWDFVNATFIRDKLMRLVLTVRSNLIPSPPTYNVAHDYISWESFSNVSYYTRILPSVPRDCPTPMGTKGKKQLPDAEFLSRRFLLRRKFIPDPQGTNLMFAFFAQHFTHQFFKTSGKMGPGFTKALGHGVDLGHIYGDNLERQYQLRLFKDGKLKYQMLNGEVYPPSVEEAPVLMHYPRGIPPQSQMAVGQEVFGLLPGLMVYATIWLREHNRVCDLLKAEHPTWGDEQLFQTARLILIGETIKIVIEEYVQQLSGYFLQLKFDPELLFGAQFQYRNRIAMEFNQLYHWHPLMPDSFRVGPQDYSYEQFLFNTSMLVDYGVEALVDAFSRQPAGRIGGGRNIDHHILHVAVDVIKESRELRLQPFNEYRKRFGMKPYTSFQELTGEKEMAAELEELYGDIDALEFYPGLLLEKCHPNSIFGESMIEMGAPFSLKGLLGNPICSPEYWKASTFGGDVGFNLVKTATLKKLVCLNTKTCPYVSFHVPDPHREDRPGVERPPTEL
As to the kind of experiment: Prostaglandin synthetase from bovine seminal vesicles. In kind it is biochemical. The note with it: Table 7; read-out: IC50 Prostaglandin Cyclooxygenase, Beef Seminal Vesicle.

The subject of test [6] is trypsin. As to the kind of experiment: Trypsin proteolytic activity, mouse macrophages. As to conditions: Table 5; read-out: IC50 Trypsin, Mouse Macrophage. Format: cell-based, mouse (J774 macrophages).
Test [7] concerns tail flick response to heat. Nature of the test: Hot plate tail flick screen. In kind it is in vivo, CF1 male mice. The note with it: for Mice Tail Flick: 8 mg/kg I.P., hot plate, Table 2; for tail flick assay time: mice, 8 mg/kg. On the technique in general: In hot-plate and tail-flick tests a longer latency is read as antinociception.
In a further test the test system is neutral cathepsin. Nature of the test: Cathepsin activity, UMR-106 osteosarcoma cells. In kind it is cell-based. As to conditions: Table 6; read-out: IC50 Neutral Cathepsin, Rat UMR-106 Bone Osteosarcoma.
The test system of test [8] is adjuvant (M. butyricum) arthritis. Nature of the test: Chronic adjuvant arthritic screen. The note with it: rats; for Rat Chronic Arthritis: 8 mg/kg/day I.P., Day 3 to Day 21, Table 2. Format: in vivo.
Test [9] relates to trypsin. As to the kind of experiment: Trypsin activity, UMR-106 osteosarcoma cells. In kind it is cell-based. As to conditions: Table 6; read-out: IC50 Trypsin, Rat UMR-106 Bone Osteosarcoma.
Test [10] concerns carrageenan-induced pleural fluid. As to the kind of experiment: Anti-pleurisy screen.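 As to Rat Pleurisy: Pleural fluid volume as percent of control rats.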 Format: in vivo, Sprague Dawley male rats. As to conditions: for pleurisy edema in rats: 8 mg/kg; for Rat Pleurisy: rats, 8 mg/kg I.P., 1 h before and 3 h after carrageenan, Table 2.
Test [11] relates to elastase. Nature of the test: Elastase activity, UMR-106 osteosarcoma cells. Format: cell-based. As to conditions: Table 6; read-out: IC50 Elastase, Rat UMR-106 Bone Osteosarcoma.
For test [12], the target named is T2, 5'-lipoxygenase (Homo sapiens, UniProt P09917).
T2 construct: endogenous in cells; host or cells: RMPI 1788 human leukocytes
T2 sequence (P09917 1-674): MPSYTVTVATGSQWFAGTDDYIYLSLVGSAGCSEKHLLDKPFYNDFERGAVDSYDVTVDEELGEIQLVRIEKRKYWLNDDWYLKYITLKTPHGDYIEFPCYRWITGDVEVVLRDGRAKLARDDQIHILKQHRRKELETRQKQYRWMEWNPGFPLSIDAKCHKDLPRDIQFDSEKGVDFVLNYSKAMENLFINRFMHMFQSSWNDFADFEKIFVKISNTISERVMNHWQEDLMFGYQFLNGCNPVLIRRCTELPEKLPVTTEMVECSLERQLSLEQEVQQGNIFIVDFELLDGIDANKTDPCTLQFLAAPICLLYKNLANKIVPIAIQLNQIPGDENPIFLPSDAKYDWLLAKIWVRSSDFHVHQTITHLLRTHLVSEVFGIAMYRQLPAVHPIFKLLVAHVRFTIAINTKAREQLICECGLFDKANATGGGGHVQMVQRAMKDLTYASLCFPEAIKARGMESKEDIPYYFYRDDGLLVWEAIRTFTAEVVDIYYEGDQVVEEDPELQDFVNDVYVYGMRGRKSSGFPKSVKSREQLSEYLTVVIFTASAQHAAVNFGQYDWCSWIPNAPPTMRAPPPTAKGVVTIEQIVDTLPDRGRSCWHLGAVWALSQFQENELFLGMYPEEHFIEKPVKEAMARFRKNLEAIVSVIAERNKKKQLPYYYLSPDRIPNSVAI
As to the kind of experiment: 5'-Lipoxygenase activity, human leukocytes. In kind it is cell-based. As to conditions: Table 7.

Test [13] concerns carrageenan-induced inflammation of paw. As to the kind of experiment: Carrageenan-induced paw edema, rats.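 As to Rat Inflammatory: paw weight increase as percent of control rats.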 Format: in vivo, Sprague Dawley male rats. As to conditions: for Rat Inflammatory: 8 mg/kg x 2, I.P., Table 2.
For test [14], the system named is carrageenan-induced inflammation of hind foot. Nature of the test: Carrageenan-induced foot edema, mice. Format: in vivo, CF1 male mice. As to conditions: mice, 8 mg/kg x 2.
Test [15] has as its target T3, 5'-lipoxygenase (Mus musculus, UniProt P48999).
T3 construct: endogenous in cells; host or cells: mouse macrophages (J774A as maintained above)
T3 sequence (P48999 1-674): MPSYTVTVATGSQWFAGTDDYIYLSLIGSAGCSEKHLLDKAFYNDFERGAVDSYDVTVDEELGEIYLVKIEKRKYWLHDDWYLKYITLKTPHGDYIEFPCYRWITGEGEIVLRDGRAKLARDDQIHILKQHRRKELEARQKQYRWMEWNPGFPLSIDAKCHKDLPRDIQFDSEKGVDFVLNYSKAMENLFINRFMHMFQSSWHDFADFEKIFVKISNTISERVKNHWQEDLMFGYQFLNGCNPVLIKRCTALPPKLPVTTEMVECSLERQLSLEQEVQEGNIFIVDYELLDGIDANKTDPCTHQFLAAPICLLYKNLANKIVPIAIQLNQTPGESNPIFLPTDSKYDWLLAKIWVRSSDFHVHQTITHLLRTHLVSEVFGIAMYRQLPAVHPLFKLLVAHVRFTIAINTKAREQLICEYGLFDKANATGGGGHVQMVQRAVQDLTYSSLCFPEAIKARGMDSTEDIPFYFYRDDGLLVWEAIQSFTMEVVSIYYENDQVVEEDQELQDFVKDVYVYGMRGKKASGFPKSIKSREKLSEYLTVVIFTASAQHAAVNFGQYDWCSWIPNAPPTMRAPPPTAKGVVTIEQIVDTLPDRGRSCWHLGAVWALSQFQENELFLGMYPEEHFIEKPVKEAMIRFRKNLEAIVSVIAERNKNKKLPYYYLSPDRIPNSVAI
Nature of the test: 5'-Lipoxygenase activity, mouse macrophages. Format: cell-based. The note with it: Table 7; read-out: IC50 5'-Lipoxygenase, Mouse Macrophage.

Take `C[N+](C)(C)[BH2-]C(C#N)c1ccccc1` (stereo not shown) [Compound 46]: the pIC50 in test [1] was 5.18; in test [2], 5.63; at acid phosphatase, 5.11; in the test with cathepsin, 5.59; on aryl sulphatase, 5.47; on elastase [4] it was 5.28. For the same compound, the pIC50 in test [5] was 6.15; in the test with trypsin [6] it was 5.62. In addition, the “Mice Writhing Reflex” value in test [3] was 46 % of control. In test [3], the “reduction of the reflex action” value is “at least 45%”. In addition, the “Mice Tail Flick” value in test [7] is reported as 191 % of control. Further, the “tail flick assay time” value in test [7] is listed as “increased”.
In the case of `CCOC(=O)[BH2-][NH+](C)C` [Compound 20], the pIC50 on acid phosphatase was 5.95; with cathepsin it was 5.40; on aryl sulphatase, 5.03; with neutral cathepsin, 5.18; at elastase [4], 5.48; in the test with trypsin [9] it was 5.04. The pIC50 in the test with trypsin [6] was 5.69; with elastase [11], 4.99. Further, the “reduction of the reflex action” value in test [3] was “at least 45%”. Moreover, in test [8] (8 mg/kg/day), the reduction of pannus result is on record as “greater than 75%”. In test [8], the “Rat Chronic Arthritis” value is 13 % of control. Also, the “pleurisy edema in rats” value in test [10] is on record as “reduced significantly”. Besides, the “Rat Pleurisy” value in [10] is on record as 61 % of control.
`COC(=O)[BH2-][NH+](C)C` [Compound 15]: the negative logarithm of the IC50 (pIC50) in [1] is 5.55; in test [2], 5.37; at 5'-lipoxygenase [12], 5.27; on acid phosphatase, 5.98; in the test on cathepsin it was 5.17; at aryl sulphatase, 5.13. Moreover, the negative logarithm of the IC50 (pIC50) in the test on neutral cathepsin was 5.21; on elastase [4], 5.67; in test [5], 5.54; with trypsin [9], 5.18; on 5'-lipoxygenase [15], 5.18; in the test on trypsin [6], 5.56. In the test with elastase [11], the pIC50 is 5.01. The “Mice Writhing Reflex” value in test [3] is on record as 12 % of control. Moreover, the “reduction of the reflex action” value in [3] came out at 80%. The “reduction in induced edema in rats” value in test [13] (8 mg/kg x 2) is “at least 40%”. In addition, the “Rat Inflammatory” value in test [13] is reported as 59 % of control. For the same compound, the “anti-inflammatory activity in mouse edema screen” value in test [14] is “less active”. Further, the “Rat Pleurisy” value in test [10] is 86 % of control. Moreover, the “Mice Tail Flick” value in [7] is on record as 147 % of control. In test [7], the “tail flick assay time” value is given as “increased”.
On to `C[NH2+][BH2-]C(=O)O` [Compound 2], for which the pIC50 in test [1] is 5.46; at acid phosphatase, 6.05; in the test with cathepsin, 5.02; at aryl sulphatase, 5.08; in the test on neutral cathepsin, 5.24; on elastase [4] it was 5.63. For the same compound, the pIC50 in the test on trypsin [9] was 5.00; in the test with trypsin [6], 5.63; in the test with elastase [11], 5.05. In addition, the “Mice Writhing Reflex” value in test [3] was 31 % of control. Besides, the “reduction of the reflex action” value in [3] was “at least 45%”. Also, the “activity in chronic arthritis screen” value in test [8] (8 mg/kg/day) was “significantly active”. In addition, the “Rat Chronic Arthritis” value in test [8] is given as 53 % of control. Besides, the “Rat Inflammatory” value in test [13] is listed as 70 % of control. In addition, in test [10], the “pleurisy edema in rats” value was “reduced significantly”. Further, in test [10], the “Rat Pleurisy” value is 61 % of control. Moreover, in test [7], the “Mice Tail Flick” value is listed as 147 % of control. For the same compound, the “tail flick assay time” value in test [7] was “increased”.
Consider `C[N+](C)(C)[BH2-]C(=O)NO.Cl` [Compound 77], for which the pIC50 in test [1] was 5.11; in test [2], 5.96; on acid phosphatase, 5.18; in the test with cathepsin, 5.29; at aryl sulphatase it was 5.85; on elastase [4], 5.83. The pIC50 with trypsin [6] is 5.67. The “Mice Writhing Reflex” value in [3] is recorded as 41 % of control. Further, the “reduction of the reflex action” value in [3] is “at least 45%”. For the same compound, in test [7], the “Mice Tail Flick” value is recorded as 139 % of control.
With `C[NH+](C)[BH2-]C#N` [Compound 33], the pIC50 in test [1] is 5.23; against 5'-lipoxygenase [12], 5.46; on acid phosphatase it was 5.95; in the test on cathepsin, 5.26; at aryl sulphatase it was 5.04; in the test with neutral cathepsin it was 5.20. Also, the negative logarithm of the IC50 (pIC50) is 5.60 at elastase [4]; 5.12 in the test on trypsin [9]; 5.00 at 5'-lipoxygenase [15]; 5.61 in the test on trypsin [6]; 5.04 with elastase [11]. Besides, the “Mice Writhing Reflex” value in test [3] is 15 % of control. Also, the “reduction of the reflex action” value in [3] is 80%. Moreover, the “Rat Inflammatory” value in test [13] is listed as 61 % of control.
